Here are results for one compound from ChEMBL document CHEMBL5331124, “Degradation of Hexokinase 2 Blocks Glycolysis and Induces GSDME-Dependent Pyroptosis to Amplify Immunogenic Cell Death for Breast Cancer Therapy” (J Med Chem, 2023).

Data set [1] in a line: Toxicity in BALB/c mouse implanted with mouse 4T1 cells assessed as effect on mean corpuscular hemoglobin at 50 mg/kg, ip measured after 25 days in presence of cisplatin by routine blood test. It counts as organism-based. As to conditions: in vivo, 600 h, time 25 day.
For data set [2], the system named is 4T1. Put plainly: Antitumor immunity against mouse 4T1 cells implanted in BALB/c mouse model assessed as increase in HMGB1 release in cell supernatant at 20 uM measured for 36 hrs by ELISA analysis. In kind it is functional, cell-based. In general terms: ELISA stands for enzyme-linked immunosorbent assay.
The target of data set [3] is T1, Hexokinase-2 (Mus musculus) (UniProt O08528).
T1 sequence (whole entry): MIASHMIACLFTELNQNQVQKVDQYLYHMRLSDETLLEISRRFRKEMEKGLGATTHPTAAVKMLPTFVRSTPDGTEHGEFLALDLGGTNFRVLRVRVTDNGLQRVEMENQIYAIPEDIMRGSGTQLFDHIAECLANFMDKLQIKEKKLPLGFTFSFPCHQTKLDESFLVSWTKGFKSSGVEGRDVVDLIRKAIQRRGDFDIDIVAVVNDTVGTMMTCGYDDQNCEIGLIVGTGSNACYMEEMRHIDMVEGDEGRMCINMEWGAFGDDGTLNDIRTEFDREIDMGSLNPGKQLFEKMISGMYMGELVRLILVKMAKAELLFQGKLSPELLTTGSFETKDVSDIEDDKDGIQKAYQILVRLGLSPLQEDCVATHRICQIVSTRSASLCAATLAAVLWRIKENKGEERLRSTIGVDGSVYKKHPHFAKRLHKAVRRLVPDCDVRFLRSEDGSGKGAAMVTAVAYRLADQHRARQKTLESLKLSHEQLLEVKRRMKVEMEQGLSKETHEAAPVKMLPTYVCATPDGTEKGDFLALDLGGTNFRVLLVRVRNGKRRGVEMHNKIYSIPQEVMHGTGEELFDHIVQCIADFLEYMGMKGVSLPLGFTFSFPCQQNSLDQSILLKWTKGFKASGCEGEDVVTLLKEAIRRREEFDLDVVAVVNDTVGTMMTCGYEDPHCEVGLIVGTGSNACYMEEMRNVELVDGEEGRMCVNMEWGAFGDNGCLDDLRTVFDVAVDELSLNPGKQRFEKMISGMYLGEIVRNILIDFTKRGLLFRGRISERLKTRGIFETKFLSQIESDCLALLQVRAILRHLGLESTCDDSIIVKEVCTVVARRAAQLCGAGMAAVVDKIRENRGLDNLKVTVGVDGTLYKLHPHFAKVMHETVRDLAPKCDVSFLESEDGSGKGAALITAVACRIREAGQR
Put plainly: Induction of HK2 degradation in mouse 4T1 cells at 20 uM measured for 36 hrs by Western blot analysis relative to control. It counts as cell-based.

The target in data set [4] is T2, Protein cereblon/Hexokinase-2 (Homo sapiens) (UniProt P52789+Q96SW2). Put plainly: PROTAC activity at CRBN/HK2 in human MDA-MB-231 cells assessed as […] ternary complex formation at 10 uM incubated for 24 hrs. It counts as cell-based.
Data set [5] deals with 4T1. In words: Antitumor activity against mouse 4T1 cells implanted in BALB/c mouse assessed as reduction in HK2 proetin level […] at 50 mg/kg, ip measured after 25 days in presence of cisplatin by Western blot analysis. It counts as functional, organism-based. The conditions noted are these: time 25.0 day. Background: Immunoblotting shows a protein as a band on a membrane.

Data set [6] is described as follows: Toxicity in BALB/c nude mouse xenografted with human MDA-MB-231 cells assessed as effect on mean corpuscular hemoglobin concentration at 50 mg/kg, ip measured after 30 days by routine blood test. As to conditions: in vivo, 720 h, time 30 day. It counts as organism-based. A general note: Xenograft models place foreign cells or tissue in a host animal.
Data set [7] deals with T2, Protein cereblon/Hexokinase-2 (Homo sapiens). In words: PROTAC activity at CRBN/HK2 in human MDA-MB-231 cells assessed as HK2 degradation at 20 uM incubated for 36 hrs. It counts as cell-based.
Data set [8] concerns the target T3, Hexokinase-1 (Homo sapiens) (UniProt P19367).
T3 sequence (whole entry): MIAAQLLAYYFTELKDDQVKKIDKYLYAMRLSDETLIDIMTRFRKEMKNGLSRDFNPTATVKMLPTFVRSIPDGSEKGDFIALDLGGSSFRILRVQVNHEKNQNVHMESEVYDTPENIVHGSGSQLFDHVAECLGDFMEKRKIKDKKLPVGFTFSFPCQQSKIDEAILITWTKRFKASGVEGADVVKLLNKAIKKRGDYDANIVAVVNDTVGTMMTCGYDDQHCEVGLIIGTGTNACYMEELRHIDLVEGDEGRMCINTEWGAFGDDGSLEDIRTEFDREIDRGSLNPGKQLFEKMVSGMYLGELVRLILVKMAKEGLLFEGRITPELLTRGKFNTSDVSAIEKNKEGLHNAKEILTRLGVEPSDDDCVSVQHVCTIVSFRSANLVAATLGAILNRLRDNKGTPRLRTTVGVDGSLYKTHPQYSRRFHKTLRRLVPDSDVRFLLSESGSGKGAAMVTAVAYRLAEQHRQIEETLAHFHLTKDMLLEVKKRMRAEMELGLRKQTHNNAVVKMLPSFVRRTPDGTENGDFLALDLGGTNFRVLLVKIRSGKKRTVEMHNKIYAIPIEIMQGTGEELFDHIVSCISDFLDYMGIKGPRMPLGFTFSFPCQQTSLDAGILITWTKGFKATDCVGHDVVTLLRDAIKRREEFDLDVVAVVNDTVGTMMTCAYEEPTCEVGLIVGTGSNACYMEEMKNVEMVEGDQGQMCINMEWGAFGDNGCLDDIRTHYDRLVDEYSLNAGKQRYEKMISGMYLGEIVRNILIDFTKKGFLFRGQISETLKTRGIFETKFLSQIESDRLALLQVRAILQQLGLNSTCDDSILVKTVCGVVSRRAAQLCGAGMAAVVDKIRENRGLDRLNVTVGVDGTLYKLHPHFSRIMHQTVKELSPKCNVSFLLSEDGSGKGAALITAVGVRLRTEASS
Put plainly: Induction of HK1 degradation in human MDA-MB-231 cells at 20 uM measured for 36 hrs by Western blot analysis. It counts as cell-based.

Data set [9] relates to 4T1. In words: Induction of pyroptosis in mouse 4T1 cells assessed as early apoptotic cells at 20 uM incubated for 36 hrs by annexin V-FITC staining based flow cytometry analysis (reference value: 4.76 %). In kind it is functional.
Data set [10] relates to 4T1. Put plainly: Induction of pyroptosis in mouse 4T1 cells assessed as dead cells at 20 uM incubated for 36 hrs by annexin V-FITC staining based flow cytometry analysis (Rvb =17.6 %). In kind it is functional.
The subject of data set [11] is 4T1. Put plainly: Antitumor immunity activity against mouse 4T1 cells implanted in BALB/c mouse assessed as increase in proportion of cytotoxic CD8 positive T cells in tumor by flow cytometry analysis. It counts as functional, cell-based.
For data set [12], the system named is 4T1. In words: Antitumor immunity against mouse 4T1 cells implanted in BALB/c mouse model assessed as increase in ATP release in cell supernatant at 20 uM measured for 36 hrs by ELISA analysis. In kind it is functional, cell-based.
Data set [13] concerns 4T1. In words: Antitumor immunity against mouse 4T1 cells implanted in BALB/c mouse model assessed as downregulation of TGF-beta expression in mouse tumor by ELISA analysis. In kind it is functional, cell-based.
The subject of data set [14] is MDA-MB-231. In words: Antitumor activity against human MDA-MB-231 cells xenografted in BALB/c nude mouse assessed as reduction in HK2 expression level at 50 mg/kg, ip measured after 28 days. In kind it is functional, organism-based. The conditions noted are these: time 28.0 day.
In data set [15] the test system is 4T1. In words: Cytotoxicity against mouse 4T1 cells assessed as inhibition of cell growth at 1 to 100 uM incubated for 48 hrs by CCK-8 assay. In kind it is functional, cell-based. As to conditions: dose 1-100 µM.

The structures appear in SMILES notation. The source made the active and inactive calls. No cut-off for these calls is given here.

T2 sequence (P52789 whole entry, looked up): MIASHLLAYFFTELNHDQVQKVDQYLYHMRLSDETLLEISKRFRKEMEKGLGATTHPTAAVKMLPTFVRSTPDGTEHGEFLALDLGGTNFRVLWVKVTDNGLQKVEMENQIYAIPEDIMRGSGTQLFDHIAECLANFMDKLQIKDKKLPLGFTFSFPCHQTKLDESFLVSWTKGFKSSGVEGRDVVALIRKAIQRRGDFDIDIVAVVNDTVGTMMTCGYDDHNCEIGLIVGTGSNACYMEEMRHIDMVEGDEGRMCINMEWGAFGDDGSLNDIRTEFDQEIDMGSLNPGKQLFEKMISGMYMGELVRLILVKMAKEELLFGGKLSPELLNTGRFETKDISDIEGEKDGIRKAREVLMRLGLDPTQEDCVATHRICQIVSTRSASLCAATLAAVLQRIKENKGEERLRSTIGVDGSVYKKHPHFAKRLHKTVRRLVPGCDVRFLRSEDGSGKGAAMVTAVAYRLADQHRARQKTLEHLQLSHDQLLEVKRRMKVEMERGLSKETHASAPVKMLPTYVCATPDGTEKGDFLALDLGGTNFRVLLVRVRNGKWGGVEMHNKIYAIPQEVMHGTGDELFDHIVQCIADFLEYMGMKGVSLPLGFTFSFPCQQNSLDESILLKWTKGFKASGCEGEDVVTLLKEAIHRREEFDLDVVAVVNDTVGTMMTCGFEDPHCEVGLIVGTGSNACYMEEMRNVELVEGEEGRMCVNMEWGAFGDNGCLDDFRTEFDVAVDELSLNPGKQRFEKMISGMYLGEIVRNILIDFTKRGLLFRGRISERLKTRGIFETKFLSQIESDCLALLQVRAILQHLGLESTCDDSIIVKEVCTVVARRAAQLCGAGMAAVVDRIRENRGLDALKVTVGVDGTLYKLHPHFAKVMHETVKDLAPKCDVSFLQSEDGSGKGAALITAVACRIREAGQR
T2 sequence (Q96SW2 whole entry, looked up): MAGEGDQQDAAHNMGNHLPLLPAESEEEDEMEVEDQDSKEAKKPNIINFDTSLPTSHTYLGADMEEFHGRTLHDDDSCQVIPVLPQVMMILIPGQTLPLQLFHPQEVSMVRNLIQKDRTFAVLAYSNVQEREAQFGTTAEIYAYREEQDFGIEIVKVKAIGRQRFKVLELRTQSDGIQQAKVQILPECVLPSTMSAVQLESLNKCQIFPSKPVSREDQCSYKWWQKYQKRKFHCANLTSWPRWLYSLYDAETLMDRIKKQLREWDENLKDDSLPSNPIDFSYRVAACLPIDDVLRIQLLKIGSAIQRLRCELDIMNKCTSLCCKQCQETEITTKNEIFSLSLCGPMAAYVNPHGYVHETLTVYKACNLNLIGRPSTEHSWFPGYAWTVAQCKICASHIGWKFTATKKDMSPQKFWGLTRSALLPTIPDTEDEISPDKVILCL

In the case of `O=C1CCC(N2C(=O)c3cccc(NCCCCNC(=O)c4nn(Cc5ccc(Cl)cc5Cl)c5ccccc45)c3C2=O)C(=O)N1` (stereo not given), the Activity entry in data set [1] was “Non-Toxic”; in data set [3], 71.1%; in data set [6], “Non-Toxic”; in [9], 9.85%; in [10], 9.44%. The result in data set [2], in [4], in data set [5], in data set [7], in data set [11] and in data set [12] was Active. The outcome in data set [13], in data set [14] and in [15] was Active. Moreover, the result in data set [8] was inactive.
